Measured values published in ChEMBL document CHEMBL1201862, “PubChem BioAssay data set” (2004).
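Interpolation was linear, between the two tested concentrations surrounding the appropriate level; five concentrations were tested over 48 hours in 96-well plates. The concentration for 50% growth inhibition is given as GI50.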 Active and inactive are the calls of the source. Cut-off read from the data, not from the text of the source: active = GI50 up to about 1.1 µM and inactive = higher.

How the values were obtained:
Experiment in all cases: NCI-60 cell line screen, 48 h
MDA-N = tested on: MDA-N
HCT-116 = tested on: HCT-116
SF-295 = tested on: SF-295
NCI-H23 = tested on: NCI-H23
UACC-62 = tested on: UACC-62
BT-549 = tested on: BT-549
SNB-19 = tested on: SNB-19
PC-3 = tested on: PC-3
SF-268 = tested on: SF-268
U-251 = tested on: U-251
786-0 = tested on: 786-0
LOX IMVI = tested on: LOX IMVI
K562 = tested on: K562
CAKI-1 = tested on: CAKI-1
SNB-75 = tested on: SNB-75
SR = tested on: SR
RPMI-8226 = tested on: RPMI-8226
DU-145 = tested on: DU-145
TK-10 = tested on: TK-10

Measured: GI50

CN(/N=C/c1ccccn1)C1=NCCN1
inactive: MDA-N > 100 µM | HCT-116 > 100 µM | SF-295 > 100 µM | NCI-H23 > 100 µM | UACC-62 > 100 µM | BT-549 > 100 µM | SNB-19 > 100 µM | PC-3 > 100 µM | SF-268 > 100 µM | U-251 > 100 µM | 786-0 > 100 µM | LOX IMVI > 100 µM | K562 > 100 µM | CAKI-1 > 100 µM | SNB-75 > 100 µM | SR > 100 µM | RPMI-8226 > 100 µM

Cc1cccc(C)c1NC(=O)/C(CC(=O)CC(c1ccccc1)c1c(O)c2ccccc2oc1=O)=N/O (centres undefined)
inactive: DU-145 > 100 µM | MDA-N > 100 µM | HCT-116 > 100 µM | SF-295 > 100 µM | NCI-H23 > 100 µM | UACC-62 > 100 µM | BT-549 > 100 µM | SNB-19 > 100 µM | PC-3 > 100 µM | SF-268 > 100 µM | U-251 > 100 µM | 786-0 > 100 µM | LOX IMVI > 100 µM | TK-10 > 100 µM | CAKI-1 > 100 µM | SNB-75 > 100 µM

CCOC(=O)[C@H]1O[C@@H]1C(=O)NC(CC(C)C)C(=O)NCCC(C)C (some centres undefined)
inactive: DU-145 > 100 µM | MDA-N > 100 µM | HCT-116 > 100 µM | SF-295 > 100 µM | NCI-H23 > 100 µM | UACC-62 > 100 µM | BT-549 > 100 µM | SNB-19 > 100 µM | PC-3 > 100 µM | SF-268 > 100 µM | U-251 > 100 µM | 786-0 > 100 µM | K562 > 100 µM | CAKI-1 > 100 µM | SNB-75 > 100 µM | RPMI-8226 > 100 µM

C=CCCC(On1c(-c2ccc(Cl)cc2)csc1=S)c1ccccc1 (centres undefined)
inactive: DU-145 49.4 µM | MDA-N 3.36 µM | HCT-116 7.03 µM | SF-295 13.9 µM | NCI-H23 39.4 µM | UACC-62 36.7 µM | BT-549 58.3 µM | SNB-19 35.6 µM | PC-3 27.3 µM | SF-268 34 µM | U-251 21.2 µM | 786-0 32.6 µM | LOX IMVI 33.6 µM | K562 9.51 µM | TK-10 83.4 µM | CAKI-1 > 100 µM | RPMI-8226 31.8 µM

O=c1c(S(=O)(=O)Oc2ccccc2)coc2cc(F)ccc12
inactive: MDA-N > 100 µM | HCT-116 > 100 µM | SF-295 30.3 µM | NCI-H23 82.2 µM | UACC-62 60 µM | BT-549 37.2 µM | SNB-19 > 100 µM | PC-3 > 100 µM | SF-268 > 100 µM | U-251 > 100 µM | 786-0 > 100 µM | LOX IMVI > 100 µM | K562 > 100 µM | TK-10 > 100 µM | CAKI-1 > 100 µM | SNB-75 30.9 µM | SR > 100 µM

CCCCSC1=N/C(=C\c2ccco2)C(Cl)=N1
inactive: DU-145 > 100 µM | MDA-N > 100 µM | HCT-116 > 100 µM | SF-295 > 100 µM | NCI-H23 > 100 µM | UACC-62 > 100 µM | BT-549 > 100 µM | SNB-19 > 100 µM | PC-3 > 100 µM | SF-268 > 100 µM | U-251 > 100 µM | 786-0 > 100 µM | TK-10 > 100 µM | CAKI-1 > 100 µM | SNB-75 > 100 µM | RPMI-8226 > 100 µM
